Test results reported in US11339130B1 (Blade Therapeutics, Inc., priority 2016, dated 2022).
Like-named read-outs stand apart in the source and are kept apart here.

What was measured:
[1] = tested on: Bleomycin-induced pulmonary fibrosis; test: Bleomycin-induced pulmonary fibrosis in mice (14 d); format: in vivo; design: concentration or dose not given beside the values
Description: The method for inducing pulmonary fibrosis in mice is described in Current Protocols in Pharmacology: 5.46.1, entitled “Mouse Models of Bleomycin-induced Pulmonary Fibrosis”. In order to induce pulmonary fibrosis, 6-8 week old C57B1/6 mice or Wistar rats are instilled once oropharyngeally with ˜1.5 U/kg of bleomycin sulfate (Calbiochem, Billerica, Mass.). Briefly, for oropharyngeal administration of bleomycin, mice or rats are anesthetized with isofluorane and then suspended on its back at a˜60 degree angle on an inclined surface with a rubber band running under the upper incisors. The airway is opened while securing the tongue with one arm of padded forceps and bleomycin is administered into the back of the oral cavity with a syringe. The animal's tongue and mouth were held open until the liquid disappeared from the oral cavity. The animal was then returned to its cage and monitored until fully recovered from the anesthesia. The study is terminated on day 14-28 for oropharyngeally administered bleomycin in mice and rats. All animals are euthanized at the termination of the studies by cervical dislocation for gross necropsy, and blood collected by cardiac puncture. The lungs from each animal are dissected from the animal and weighed. The BAL cells and fluid are collected by lavaging the lung twice with 0.5 ml Hanks Balanced Salt Solution (HBSS; VWR, Radnor, Pa.). After collection of BAL cells and fluid, lungs are dissected and removed from each animal. Whole lungs are inflated with 10% NBF and then fixed in 10% NBF for histology. Severity of fibrosis in the lungs is evaluated using a modified Ashcroft score (Hubner, Biotechniques, 2008) and subjective fibrosis scores. Lung sections were graded by averaging 5 microscopic fields at 20× on an Ashcroft scale as follows: Grade 0=normal lung; Grade 1=minimally detectable thickening of alveolar walls; Grade 2=Mild thickening of alveolar walls. Grade 3=moderate contiguous thickening of walls with fibrous nodules; Grade 4=Thickened septae and confluent fibrotic masses that total less than 10% of microscopic field. Grade 5=increased fibrosis with definite damage to lung structure and formation of fibrous bands or small fibrous masses between 10 and 50% of microscopic field; Grade 6=Large contiguous fibrotic masses consolidating more than 50% of microscopic field. Grade 7=severe distortion of structure and large fibrous areas; Grade 8=total fibrous obliteration of lung within microscopic field. Each slide was examined at 20× magnification and the score for 5 separate representative fields was averaged for each animal. Subjective scores (H&E and Trichrome-stained slides) were evaluated at 2× magnification for an overall assessment of pathologic change. A score of 0=no detectible findings to 5=complete involvement of consolidation. Scores in each group were averaged and standard error was calculated using Excel 2010. Dense, organized inflammatory exudates were scored as fibrosis. Other tissues were evaluated microscopically and scored routinely.

[2] = biological target: T1, Human Calpain 2/NS1 (Homo sapiens, UniProt P17655); test: Calpain inhibition continuous fluorescence (FRET) assay, Human Calpain 2/NS1; format: biochemical; conditions: read-out: Human Calpain 2/NS1 IC50
T1 sequence (P17655 1-700): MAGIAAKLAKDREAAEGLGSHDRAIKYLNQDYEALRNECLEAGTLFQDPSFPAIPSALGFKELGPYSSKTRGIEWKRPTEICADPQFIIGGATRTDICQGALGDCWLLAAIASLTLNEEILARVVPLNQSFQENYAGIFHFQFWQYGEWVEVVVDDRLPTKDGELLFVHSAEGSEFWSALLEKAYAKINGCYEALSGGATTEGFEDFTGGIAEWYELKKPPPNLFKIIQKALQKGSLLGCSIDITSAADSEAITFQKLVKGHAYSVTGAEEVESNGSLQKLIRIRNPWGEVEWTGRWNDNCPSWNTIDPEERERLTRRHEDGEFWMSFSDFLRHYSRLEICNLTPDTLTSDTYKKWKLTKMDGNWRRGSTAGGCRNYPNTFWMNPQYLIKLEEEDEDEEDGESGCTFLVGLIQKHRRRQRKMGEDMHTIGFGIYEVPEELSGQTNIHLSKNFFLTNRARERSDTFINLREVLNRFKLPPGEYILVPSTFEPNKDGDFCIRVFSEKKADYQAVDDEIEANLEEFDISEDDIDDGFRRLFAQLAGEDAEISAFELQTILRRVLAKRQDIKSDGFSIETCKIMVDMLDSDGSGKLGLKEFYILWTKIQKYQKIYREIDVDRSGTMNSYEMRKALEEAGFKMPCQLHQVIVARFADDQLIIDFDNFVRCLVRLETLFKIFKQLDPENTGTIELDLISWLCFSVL
T1 sequence (P04632 1-268 partner): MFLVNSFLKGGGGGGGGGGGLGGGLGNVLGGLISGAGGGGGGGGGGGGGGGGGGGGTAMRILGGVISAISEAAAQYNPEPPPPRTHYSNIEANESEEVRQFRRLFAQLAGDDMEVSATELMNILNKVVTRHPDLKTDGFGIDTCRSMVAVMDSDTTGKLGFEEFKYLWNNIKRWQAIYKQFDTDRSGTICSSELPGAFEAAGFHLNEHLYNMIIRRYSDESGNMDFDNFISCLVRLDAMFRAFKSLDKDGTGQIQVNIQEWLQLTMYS
Method in brief: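 Fluorescence increase from the cleaved 5-FAM/QXL 520 substrate, read at 490/520 nm, gave activity. Calcium was supplied with the substrate to activate the enzyme in situ after a 25C enzyme-inhibitor preincubation, and IC50s were fit from initial slopes.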

SMILES	% reduction compared to vehicle [1] [%]	IC50 ([2]; Column B) [µM]	IC50 [2] [µM]
NC(=O)C(=O)[C@H](Cc1ccccc1)NC(=O)c1cnoc1-c1ccccc1 [Compound 60, (S)—N-(4-amino-3,4-dioxo-1-phenylbutan-2-yl)-5-phenylisoxazole-4-carboxamide]	−24	< 3	
Cn1cc(C(=O)N[C@@H](Cc2ccccc2)C(=O)C(N)=O)c(-c2ccccc2)n1 [Compound 32, (S)—N-(4-amino-3,4-dioxo-1-phenylbutan-2-yl)-1-methyl-3-phenyl-1H-pyrazole-4-carboxamide]		< 3	
CCCC[C@H](NC(=O)c1oc(C)nc1-c1ccccc1)C(=O)C(N)=O [Compound 265, (S)—N-(1-amino-1,2-dioxoheptan-3-yl)-2-methyl-4-phenyloxazole-5-carboxamide]		< 3	
Cl.Cn1cc(C(=O)NC(Cc2ccccc2)C(=O)C(N)=O)c(-c2cccc(F)c2)n1 (stereo not drawn) [Compound 485, N-(4-amino-3,4-dioxo-1-phenylbutan-2-yl)-3-(3-fluorophenyl)-1-methyl-1H-pyrazole-4-carboxamide hydrochloride]	−41		< 3
NC(=O)C(=O)[C@H](Cc1ccccc1)NC(=O)c1nsnc1-c1ccccc1 [Compound 72, (S)—N-(4-amino-3,4-dioxo-1-phenylbutan-2-yl)-4-phenyl-1,2,5-thiadiazole-3-carboxamide]	−35	< 3	
NC(=O)C(=O)C(Cc1ccccc1)NC(=O)c1cn(C(F)F)nc1-c1ccccc1 (stereo not drawn) [Compound 403, N-(4-amino-3,4-dioxo-1-phenylbutan-2-yl)-1-(difluoromethyl)-3-phenyl-1H-pyrazole-4-carboxamide]	−29		< 3
Cn1cc(C(=O)NC(Cc2ccccc2)C(=O)C(N)=O)c(-c2ccccc2F)n1 (stereo not drawn) [Compound 484, N-(4-amino-3,4-dioxo-1-phenylbutan-2-yl)-3-(2-fluorophenyl)-1-methyl-1H-pyrazole-4-carboxamide]	−35		< 3
Cc1nc(-c2ccccc2F)c(C(=O)NC(Cc2ccccc2)C(=O)C(N)=O)o1 (stereo not drawn) [Compound 405, N-(4-amino-3,4-dioxo-1-phenylbutan-2-yl)-4-(2-fluorophenyl)-2-methyloxazole-5-carboxamide]	−33		< 3
Cc1nc(-c2cccc(F)c2)c(C(=O)NC(Cc2ccccc2)C(=O)C(N)=O)o1 (stereo not drawn) [Compound 404, N-(4-amino-3,4-dioxo-1-phenylbutan-2-yl)-4-(3-fluorophenyl)-2-methyloxazole-5-carboxamide]	−24		< 3
Cc1cc(C(=O)NC(Cc2ccccc2)C(=O)C(N)=O)n(-c2ccccn2)n1 (stereo not drawn) [Compound 495, N-(4-amino-3,4-dioxo-1-phenylbutan-2-yl)-3-methyl-1-(pyridin-2-yl)-1H-pyrazole-5-carboxamide]	−27		< 3
NC(=O)C(=O)[C@H](Cc1ccccc1)NC(=O)c1cn(C2CC2)nc1-c1ccccc1 [Compound 250, (S)—N-(4-amino-3,4-dioxo-1-phenylbutan-2-yl)-1-cyclopropyl-3-phenyl-1H-pyrazole-4-carboxamide]		< 3	
NC(=O)C(=O)C(Cc1ccccc1)NC(=O)c1cn(C2CC2)nc1-c1ccccc1 (stereo not drawn) [Compound 406, N-(4-amino-3,4-dioxo-1-phenylbutan-2-yl)-1-cyclopropyl-3-phenyl-1H-pyrazole-4-carboxamide]	−25		< 3
NC(=O)C(=O)[C@H](Cc1ccccc1)NC(=O)c1snnc1-c1ccccc1 [Compound 44, (S)—N-(4-amino-3,4-dioxo-1-phenylbutan-2-yl)-4-phenyl-1,2,3-thiadiazole-5-carboxamide]		< 3	
Cc1nc(-c2ccccc2)c(C(=O)NC(Cc2ccccc2)C(=O)C(N)=O)o1 (stereo not drawn) [Compound 357, N-(4-amino-3,4-dioxo-1-phenylbutan-2-yl)-2-methyl-4-phenyloxazole-5-carboxamide]	−13		< 3
